Source: patent US5696117A, “Benzoxazine antimicrobial agents” (Ortho Pharmaceutical Corporation, priority 1995, dated 1997)

Target: T1, Kinase A and SpoOF (Bacillus subtilis, UniProt P16497)
T1 construct: made in house; host or cells: recombinant E. coli (overexpression)
T1 sequence (P16497 1-606): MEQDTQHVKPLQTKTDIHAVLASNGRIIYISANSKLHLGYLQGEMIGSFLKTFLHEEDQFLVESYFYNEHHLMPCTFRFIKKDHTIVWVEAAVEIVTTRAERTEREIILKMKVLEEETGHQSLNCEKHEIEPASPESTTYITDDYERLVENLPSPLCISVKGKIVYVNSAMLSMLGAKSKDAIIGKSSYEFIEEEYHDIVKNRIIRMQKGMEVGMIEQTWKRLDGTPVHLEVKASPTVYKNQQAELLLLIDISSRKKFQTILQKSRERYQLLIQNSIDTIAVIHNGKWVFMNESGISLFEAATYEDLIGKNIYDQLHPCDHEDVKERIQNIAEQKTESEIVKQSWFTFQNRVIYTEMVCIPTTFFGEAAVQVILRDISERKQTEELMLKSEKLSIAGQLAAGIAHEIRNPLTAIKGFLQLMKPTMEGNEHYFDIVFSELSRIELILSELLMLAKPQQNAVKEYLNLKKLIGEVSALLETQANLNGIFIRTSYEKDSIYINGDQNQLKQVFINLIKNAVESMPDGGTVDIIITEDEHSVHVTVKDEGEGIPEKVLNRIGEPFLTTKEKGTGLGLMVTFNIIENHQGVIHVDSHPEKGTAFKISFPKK
Experiment: Autophosphorylation of Kinase A and Transphosphorylation of SpoOF Assay (HPK in vitro assay)
Type: biochemical
Conditions: inhibition of KinA autophosphorylation / SpoOF transphosphorylation, inhibitor concentrations from 1 to 500 μM
Protocol: 1. Autophosphorylation of Kinase A and Transphosphorylation of SpoOF Assay
To study the effect of the compounds of the present invention on the signal transduction process in bacteria, the inhibiting effect of the compounds on the sporulation operon proteins Kinase A and SpoOF was examined. Specifically, the inhibition of autophosphorylation of Kinase A and the transphosphorylation of SpoOF was determined in the following assays. The SpoOF response regulator is the primary substrate for phosphorylation by the protein kinase, Kin A, involved in the sporulation process in bacteria. See D. Burbulys, K. A. Trach, J. A. Hoch, Cell, 64, 545-552 (1991). SpoOF and KinA were prepared from recombinant E. coli overexpressing the proteins (J. Cavanagh et al, Amino Acids, 6, 131-140 (1994) and references therein).
The following stock reagents were either prepared and used promptly or stored at the indicated temperature:
8× Salts: 2M KCl (5 mL), 1M MgCl2 (800 mL), 1M CaCl2 (100 mL), 10 mg/mL phenylmethylsulfonyl fluoride (200 mL), 1M dithioreitol (50 mL), 0.25M Na2 EDTA (32 mL) and H2 O 3.82 mL (-20° C.)
5× Loading Dye: 0.5M TRIS-HCl-pH 6.8 (7.5 mL), 10% SDS (2 mL) 0.1% bromophenol blue (0.5 mL), 100% glycerol (3 mL) and 12.5M 2-mercaptoethanol (0.3 mL)
1-1.3 mg/mL KinA:15 mM TRIS-HCl, pH 8.0, 6 mM KCl; 4 mM 2-mercaptoethanol; 40% glycerol (-20° C.)
1 mg/mL SpoOF: 17.5 mM TRIS-HCl, pH 8.0; 0.7 mM KCl; 0.7 mM MgCl2; 0.7 mM CaCl2; 5mM 2-mercaptoethanol; 30% Glycerol (-20° C.)
5% Stacking Gel: 40% 29:1 acrylamide:bis acrylamide (1.25 mL), 0.5M TRIS-HCl, pH 6.8 (2.5 mL), 10% SDS (0.1 mL), D-H2 O (6.15 mL) 10% ammonium persulfate (100 mL) and TEMED (25 mL)
SDS Running Buffer: TRIS-BASE (3.02 g), glycine (14.4 g) SDS (1 g), D-H2 O (to 1 L)
The reaction mixture was prepared from 8× Salts (87 μL), 1M TRIS, pH 8 (118 μL), 50% glycerol (63 μL), SpoOF (14.1 μL) and KinA (7.0 μL). Microcentrifuge tubes were charged with the reaction mixture (18.5 μL) and a 1.0 mM solution of the test compound in 5% DMSO (18.5 μL), and incubated for 15 min on ice. 100 mM ATP solution (3.0 μl, containing 625 μCi [^32 P]ATP) was added, and the mixture left for 10 minutes at room temperature. The reaction was quenched with 5× loading dye (10 μL per tube) and the samples were loaded on a prepared 5% Stacking Gel, or stored on dry ice until ready for use. The prepared wells were filled with SDS Running Buffer, samples were loaded into the wells, and 80 volts were applied to the gel until the dye front reached the bottom of the stacking gel. The voltage was then increased to 250 volts until electrophoresis was complete. Radioactive bands in the gel corresponding to phosphorylated KinA and SpoOF were imaged and quantitated with a phosphoimager.
If either enzyme was inhibited (as evidenced by the absence of labelled protein in the developed gel), an IC50 was calculated by running the assay with a range of inhibitor concentrations from 1 to 500 μM. After electrophoresis of the reaction mixtures, percent inhibition was determined by measuring the concentration of radioactive phosphorus with a phosphoimager and calculating the values using a software program (BioRad Molecular Analyst). IC50 values of less than 500 μM are considered active.

| Compound | IC50 |
| --- | --- |
| N=C(N)NCCc1ccc(OCCC2Oc3cc([N+](=O)[O-])ccc3N(Cc3cccc([N+](=O)[O-])c3)C2=O)cc1 (stereo not shown) [Compound 91, 3,4-Dihydro-2-{2-[4-(2-guanidinoethyl)phenoxy]ethyl}-7-nitro-4-(3-nitrobenzyl)-3-oxo-2H-1,4-benzoxazine] | 33 µM |
| CC(C)(C)OC(=O)NCCc1cccc(OCCC2Oc3ccccc3N(Cc3ccc(Cl)cc3)C2=O)c1 (stereo not shown) [Compound 7, 2-{2-[3-(2-t-Butoxycarbonylaminoethyl)phenoxy]ethyl}-4-(4-chlorobenzyl)-3,4-dihydro-3-oxo-2H-1,4-benzoxazine] | 308 µM |
| CC(C)(C)OC(=O)N=C(NCCc1ccc(OCCC2Oc3cc([N+](=O)[O-])ccc3N(Cc3ccccc3[N+](=O)[O-])C2=O)cc1)NC(=O)OC(C)(C)C (stereo not shown) [Compound 143, 2-{2-[4-(2-(N,N-Bis-tert-butoxycarbonylguanidino)ethyl)phenoxy]ethyl}-3,4-dihydro-7-nitro-4-(2-nitrobenzyl) 3-oxo-2H-1,4-benzoxazine] | 73 µM |
| CC(C)(C)OC(=O)NCCc1ccc(OCCC2Oc3ccccc3N(Cc3ccccc3Cl)C2=O)cc1 (stereo not shown) [Compound 17, 2-[2-[4-(2-(t-Butoxycarbonylamino)ethyl)phenoxy]ethyl]-4-(2-chlorobenzyl)-3,4-dihydro-3-oxo-2H-1,4-benzoxazine] | 352 µM |
| CC(C)(C)OC(=O)N=C(NCCc1ccc(OCCC2Oc3ccccc3N(Cc3cccc(Cl)c3)C2=O)cc1)NC(=O)OC(C)(C)C (stereo not shown) [Compound 71, 2-{2-[4-[2-(N,N-'Bis-tert-butoxycarbonylguanidino)ethyl]phenoxy]ethyl}-4-(3-chlorobenzyl)-3,4-dihydro-3-oxo-2H-1,4-benzoxazine] | 300 µM |
| COc1ccc2c(c1)OC(CCOc1ccc(CCNC(=NC(=O)OC(C)(C)C)NC(=O)OC(C)(C)C)cc1)C(=O)N2Cc1cccc([N+](=O)[O-])c1 (stereo not shown) [Compound 99, 2-{2-[4-(2-(N,N'-Bis-tert-butoxycarbonylguanidino)ethyl)phenoxy]ethyl}-3,4-dihydro-7-methoxy-4-(3-nitrobenzyl)-3-oxo-2H-1,4-benzoxazine] | 343 µM |
| CC(C)(C)OC(=O)N=C(NCCc1ccc(OCCC2Oc3cc([N+](=O)[O-])ccc3N(Cc3cccc(Cl)c3)C2=O)cc1)NC(=O)OC(C)(C)C (stereo not shown) [Compound 80] | 162 µM |
| CC(C)(C)OC(=O)N=C(NCCc1ccc(OCCC2Oc3ccccc3N(Cc3ccccc3)C2=O)cc1)NC(=O)OC(C)(C)C (stereo not shown) [Compound 27] | 340 µM |
| CC(C)(C)OC(=O)NCc1ccc(OCCC2Oc3ccccc3N(Cc3cccc(Cl)c3)C2=O)cc1 (stereo not shown) [Compound 1, 2-[2-[4-(t-Butoxycarbonylaminomethyl)phenoxy]ethyl]-4-(3-chlorobenzyl)-3,4-dihydro-3-oxo-2H-1,4-benzoxazine] | 253 µM |

Continued, values first:

| IC50 | Compound |
| --- | --- |
| 324 µM | NCCc1ccc(OCCC2Oc3ccccc3N(Cc3ccc(C(=O)O)cc3)C2=O)cc1 (stereo not shown) [Compound 110, 4-{3,4-Dihydro-2-[2-(4-(2-aminoethyl)phenoxy)]ethyl-3-oxo-2H-1,4-benzoxazin-4-yl}methylbenzoic Acid] |
| 14 µM | N=C(N)NCCc1ccc(OCCC2Oc3ccc(C(F)(F)F)cc3N(Cc3cccc(Cl)c3)C2=O)cc1 (stereo not shown) [Compound 54, 4-(3-Chlorobenzyl)-3,4-dihydro-2-{2-[4-(2-guanidinoethyl)phenoxy]ethyl}-3-oxo-6-trifluoromethyl-2H-1,4-benzoxazine] |
| 264 µM | NCCc1ccc(OCCC2Oc3ccccc3N(Cc3ccccc3Cl)C2=O)cc1 (stereo not shown) [Compound 18, 2-[2-[4-(2-Aminoethyl)phenoxy]ethyl]-4-(2-chlorobenzyl)-3,4-dihydro-3-oxo-2H-1,4-benzoxazine] |
| 34 µM | N=C(N)NCCc1ccc(OCCC2Oc3ccccc3N(Cc3ccc(-c4ccccc4)cc3)C2=O)cc1 (stereo not shown) [Compound 38, 3,4-Dihydro-2-{2-[4-(2-guanidinoethyl)phenoxy]ethyl}-3-oxo-4-(4-phenylbenzyl)-2H-1,4-benzoxazine] |
| 51 µM | COc1ccc(CN2C(=O)C(CCOc3ccc(CCNC(=N)N)cc3)Oc3ccccc32)cc1 (stereo not shown) [Compound 37, 3,4-Dihydro-2-{2-[4-(2-guanidinoethyl)phenoxy]ethyl}-4-(4-methoxybenzyl)-3-oxo-2H-1,4-benzoxazine] |
| 27 µM | Cl.NCCc1ccc(OCCC2Oc3cc([N+](=O)[O-])ccc3N(Cc3cccc(Cl)c3)C2=O)cc1 (stereo not shown) [Compound 82, 2-{2-[4-(2-Aminoethyl)phenoxy]ethyl}-4-(3-chlorobenzyl)-3,4-dihydro-7-nitro-3-oxo-2H-1,4-benzoxazine monohydrochloride] |
| 174 µM | N=C(N)NCCc1ccc(OCCC2Oc3ccncc3N(Cc3cccc(Cl)c3)C2=O)cc1 (stereo not shown) [Compound 62, 4-(3-Chlorobenzyl)-3,4-dihydro-2-[2-[4-(2-guanidinoethyl)phenoxy]ethyl]-3-oxo-2H-pyrido[4,3-b]-1,4-oxazine] |
| 24 µM | N=C(N)NCCc1ccc(OCCC2Oc3ccccc3N(Cc3cccc(OCc4ccccc4)c3)C2=O)cc1 (stereo not shown) [Compound 35, 4-(3-Benzyloxybenzyl)-3,4-dihydro-2-{2-[4-(2-guanidinoethyl)phenoxy]ethyl}-3-oxo-2H-1,4-benzoxazine] |
| 145 µM | COc1cccc(CN2C(=O)C(CCOc3ccc(CCNC(=N)N)cc3)Oc3ccccc32)c1 (stereo not shown) [Compound 33, 3,4-Dihydro-2-{2-[4-(2-guanidinoethyl)phenoxy]ethyl}-4-(3-methoxybenzyl)-3-oxo-2H-1,4-benzoxazine] |
| 36 µM | N=C(N)NCCc1ccc(OCCC2Oc3ccc(-c4ccccc4)cc3N(Cc3cccc(Cl)c3)C2=O)cc1 (stereo not shown) [Compound 52, 4-(3-Chlorobenzyl)-3,4-dihydro-2-{2-[4-(2-guanidinoethyl)phenoxy]ethyl}-3-oxo-6-phenyl-2H-1,4-benzoxazine] |
| 17 µM | N=C(N)NCCc1ccc(OCCC2Oc3c(Cl)cc(Cl)cc3N(Cc3cccc(Cl)c3)C2=O)cc1 (stereo not shown) [Compound 57, 4-(3-Chlorobenzyl)-6,8-dichloro-2-{2-[4-(2-guanidinoethyl)phenoxy]ethyl}-3,4-dihydro-3-oxo-2H-1,4-benzoxazine] |
| 23 µM | O=C1NC(=O)C(c2ccc(OCCC3Oc4ccccc4N(Cc4cccc(Cl)c4)C3=O)cc2)S1 (stereo not shown) [Compound 134, 5-[4-{2-[4-(3-Chlorobenzyl)-3,4-dihydro-3-oxo-2H-1,4-benzoxazin-2-yl]ethoxy}phenyl]thiazolidine-2,4-dione] |
| 28 µM | N=C(N)NCCc1ccc(OCCC2Oc3cc(F)ccc3N(Cc3cccc(Cl)c3)C2=O)cc1 (stereo not shown) [Compound 55, 4-(3-Chlorobenzyl)-3,4-dihydro-7-fluoro-2-{2-[4-(2-guanidinoethyl)phenoxy]ethyl}-3-oxo-2H-1,4-benzoxazine] |
